In patent US20240383875A1, “Benzimidazole Pyridine Derivatives” (Hoffmann-La Roche Inc., priority 2022, published 2024):
pIC50: −log10 of the molar value.

Experiments:
Format in all cases: biochemical
[1] = target: SIK2 (Homo sapiens, UniProt Q9H0K1); assay: Enzymatic activity assay SIK2, RapidFire mass spectrometry (phosphorylation of CHK-peptide); details: RapidFire MS, inhibition of SIK2; read-out: SIK2 RF IC50
Procedure, shortened: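 SIK2 (0.5 nM) in pH 7.0 HEPES buffer with 10 mM Mg acetate phosphorylates CHK-peptide (10 μM solution) with 100 μM ATP solution, 45 min ambient, then formic acid quench.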

[2] = target: SIK3 (Homo sapiens, UniProt Q9Y2K2); assay: Enzymatic activity assay SIK3, RapidFire mass spectrometry (phosphorylation of CHK-peptide); details: RapidFire MS, inhibition of SIK3; read-out: SIK3 RF IC50
Sequence of SIK3 (Q9Y2K2 whole entry): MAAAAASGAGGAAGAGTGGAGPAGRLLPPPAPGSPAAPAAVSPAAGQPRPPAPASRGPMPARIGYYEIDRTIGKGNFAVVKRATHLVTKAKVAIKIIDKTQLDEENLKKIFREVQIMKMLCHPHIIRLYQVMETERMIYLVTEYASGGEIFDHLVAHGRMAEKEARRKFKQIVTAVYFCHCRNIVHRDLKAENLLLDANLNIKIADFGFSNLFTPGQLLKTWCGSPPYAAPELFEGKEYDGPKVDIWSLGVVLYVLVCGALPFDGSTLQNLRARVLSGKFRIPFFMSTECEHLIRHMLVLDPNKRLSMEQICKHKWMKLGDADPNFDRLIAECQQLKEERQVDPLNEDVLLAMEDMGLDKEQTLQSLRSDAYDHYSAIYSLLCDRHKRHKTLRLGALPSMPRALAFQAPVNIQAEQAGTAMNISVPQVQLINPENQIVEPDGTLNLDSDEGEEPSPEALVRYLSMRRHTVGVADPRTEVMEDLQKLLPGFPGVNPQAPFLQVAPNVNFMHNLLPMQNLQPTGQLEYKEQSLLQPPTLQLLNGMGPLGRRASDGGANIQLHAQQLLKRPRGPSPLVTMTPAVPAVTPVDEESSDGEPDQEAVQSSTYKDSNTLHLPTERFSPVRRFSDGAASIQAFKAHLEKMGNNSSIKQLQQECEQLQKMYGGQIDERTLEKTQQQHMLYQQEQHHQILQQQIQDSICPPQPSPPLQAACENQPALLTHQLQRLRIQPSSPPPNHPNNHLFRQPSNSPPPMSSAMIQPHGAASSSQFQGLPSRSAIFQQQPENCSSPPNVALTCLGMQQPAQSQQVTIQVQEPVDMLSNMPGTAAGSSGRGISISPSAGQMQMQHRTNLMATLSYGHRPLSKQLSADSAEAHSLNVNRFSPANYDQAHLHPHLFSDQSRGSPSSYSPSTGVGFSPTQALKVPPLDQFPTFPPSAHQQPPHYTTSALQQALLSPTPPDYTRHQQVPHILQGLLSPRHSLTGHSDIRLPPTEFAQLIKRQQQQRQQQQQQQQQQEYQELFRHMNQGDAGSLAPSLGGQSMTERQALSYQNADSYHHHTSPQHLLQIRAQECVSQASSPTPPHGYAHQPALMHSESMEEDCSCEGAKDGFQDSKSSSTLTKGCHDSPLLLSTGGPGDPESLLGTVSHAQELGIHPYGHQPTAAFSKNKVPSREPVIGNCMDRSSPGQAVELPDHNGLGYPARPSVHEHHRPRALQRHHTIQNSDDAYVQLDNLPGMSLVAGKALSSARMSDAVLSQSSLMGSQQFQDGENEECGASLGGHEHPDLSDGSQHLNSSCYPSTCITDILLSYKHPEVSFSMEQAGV
Procedure, shortened: (§1)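 Compounds (12-point, 3-fold, generally 30 μM to 170 pM) were pre-incubated 30 min at ambient temperature with SIK1 (5 nM), SIK2 (0.5 nM) or SIK3 (1.5 nM) in HEPES pH 7.0/magnesium acetate buffer. CHK-peptide (10 μM solution) and ATP (100 μM solution) were then added for 45 min before formic acid quench.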

[3] = target: SIK1 (Homo sapiens, UniProt P57059); assay: Enzymatic activity assay SIK1, RapidFire mass spectrometry (phosphorylation of CHK-peptide); details: RapidFire MS, inhibition of SIK1; read-out: SIK1 RF IC50
Sequence of SIK1 (P57059 whole entry): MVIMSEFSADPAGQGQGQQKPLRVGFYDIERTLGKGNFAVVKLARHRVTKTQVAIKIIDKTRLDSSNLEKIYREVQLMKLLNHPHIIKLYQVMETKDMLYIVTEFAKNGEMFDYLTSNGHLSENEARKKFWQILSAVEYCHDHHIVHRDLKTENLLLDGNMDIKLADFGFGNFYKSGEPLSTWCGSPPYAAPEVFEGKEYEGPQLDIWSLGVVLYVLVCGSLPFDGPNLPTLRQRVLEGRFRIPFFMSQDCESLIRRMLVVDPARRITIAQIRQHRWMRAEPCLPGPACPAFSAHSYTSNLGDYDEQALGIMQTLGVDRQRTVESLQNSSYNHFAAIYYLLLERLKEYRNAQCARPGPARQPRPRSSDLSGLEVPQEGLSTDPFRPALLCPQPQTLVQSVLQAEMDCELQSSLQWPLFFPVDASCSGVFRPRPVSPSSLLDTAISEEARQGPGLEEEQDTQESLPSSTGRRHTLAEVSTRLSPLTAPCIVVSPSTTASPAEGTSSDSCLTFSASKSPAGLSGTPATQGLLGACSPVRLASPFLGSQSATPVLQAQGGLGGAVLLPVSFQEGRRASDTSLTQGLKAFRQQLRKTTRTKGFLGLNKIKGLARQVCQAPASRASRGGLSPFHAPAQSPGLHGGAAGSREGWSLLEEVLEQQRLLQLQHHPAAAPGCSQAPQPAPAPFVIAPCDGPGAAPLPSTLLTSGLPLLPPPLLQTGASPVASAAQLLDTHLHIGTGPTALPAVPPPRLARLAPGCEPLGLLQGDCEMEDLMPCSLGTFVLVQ
Procedure, shortened: as §1

Sequence of SIK2 (Q9H0K1 whole entry): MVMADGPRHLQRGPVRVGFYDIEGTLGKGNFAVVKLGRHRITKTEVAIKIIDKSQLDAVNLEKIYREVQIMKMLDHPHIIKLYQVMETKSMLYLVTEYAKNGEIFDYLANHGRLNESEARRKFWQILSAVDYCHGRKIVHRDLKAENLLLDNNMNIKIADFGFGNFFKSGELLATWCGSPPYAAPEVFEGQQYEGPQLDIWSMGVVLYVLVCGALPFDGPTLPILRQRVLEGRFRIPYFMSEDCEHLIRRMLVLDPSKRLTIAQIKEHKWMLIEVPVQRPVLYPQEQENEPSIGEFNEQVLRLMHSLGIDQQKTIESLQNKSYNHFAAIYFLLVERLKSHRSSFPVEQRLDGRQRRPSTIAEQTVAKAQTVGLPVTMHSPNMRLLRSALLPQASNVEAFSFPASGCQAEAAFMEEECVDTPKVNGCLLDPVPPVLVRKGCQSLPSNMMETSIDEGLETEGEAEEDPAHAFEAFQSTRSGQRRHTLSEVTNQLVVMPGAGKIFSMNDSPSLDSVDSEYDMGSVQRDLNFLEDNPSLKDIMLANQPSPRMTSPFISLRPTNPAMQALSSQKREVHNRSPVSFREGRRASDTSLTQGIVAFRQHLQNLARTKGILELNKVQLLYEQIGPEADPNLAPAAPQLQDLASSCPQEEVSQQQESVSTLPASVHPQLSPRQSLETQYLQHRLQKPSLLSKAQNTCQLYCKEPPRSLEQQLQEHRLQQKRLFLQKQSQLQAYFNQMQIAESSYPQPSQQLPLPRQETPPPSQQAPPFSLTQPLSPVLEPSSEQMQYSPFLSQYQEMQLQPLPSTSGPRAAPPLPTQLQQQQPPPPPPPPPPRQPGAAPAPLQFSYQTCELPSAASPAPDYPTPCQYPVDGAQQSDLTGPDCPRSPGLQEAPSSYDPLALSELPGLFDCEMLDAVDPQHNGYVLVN

SMILES: Cc1cc(C#N)nn1-c1nc(-n2cnc3cc(N4CC[C@H]5CNC(=O)[C@H]54)ccc32)ccc1C(C)O (stereo partly drawn) [Example 330, 1-[6-[5-[(3aS,6aS)-6-oxo-2,3,3a,4,5,6a-hexahydropyrrolo[2,3-c]pyrrol-1-yl]benzimidazol-1-yl]-3-(1-hydroxyethyl)-2-pyridyl]-5-methylpyrazole-3-carbonitrile]
- pIC50 [1]: 7.59
- pIC50 [2]: 7.29
- pIC50 [3]: 6.95

SMILES: COCCOc1cc2c(cc1Nc1ccc(C)nn1)ncn2-c1ccc(C(C)O)c(-n2nc(C#N)cc2C)n1 (stereo not drawn) [Example 187, 1-[3-(1-Hydroxyethyl)-6-[6-(2-methoxyethoxy)-5-[(6-methylpyridazin-3-yl)amino]benzimidazol-1-yl]-2-pyridyl]-5-methyl-pyrazole-3-carbonitrile]
- pIC50 [1]: 8.70
- pIC50 [2]: 8.25
- pIC50 [3]: 7.15

SMILES: Cc1ccc(Nc2ccc3c(c2)ncn3-c2ccc(C(C)O)c(N3CCOC(C(F)(F)F)C3)n2)nn1 (stereo not drawn) [Example 320, 1-[6-[5-[(6-methylpyridazin-3-yl)amino]benzimidazol-1-yl]-2-[2-(trifluoromethyl)morpholin-4-yl]-3-pyridyl]ethanol]
- pIC50 [1]: 7.19
- pIC50 [2]: 8.02
- pIC50 [3]: 5.31

SMILES: Cc1ccc(Nc2cc3ncn(-c4ccc([C@@H](C)O)c(-n5nc(OC(F)F)cc5C)n4)c3cc2F)nn1 [Example 375, (1R)-1-[2-[3-(difluoromethoxy)-5-methyl-pyrazol-1-yl]-6-[6-fluoro-5-[(6-methylpyridazin-3-yl)amino]benzimidazol-1-yl]-3-pyridyl]ethanol]
- pIC50 [1]: 8.22
- pIC50 [2]: 8.06
- pIC50 [3]: 6.00

SMILES: Cc1ccc(Nc2ccc3c(c2)ncn3-c2ccc(C(C)O)c(N3CCC(C)(C#N)C3)n2)nn1 (stereo not drawn) [Example 121, 1-[3-(1-Hydroxyethyl)-6-[5-[(6-methylpyridazin-3-yl)amino]benzimidazol-1-yl]-2-pyridyl]-3-methyl-pyrrolidine-3-carbonitrile]
- pIC50 [1]: 7.65
- pIC50 [2]: 8.44
- pIC50 [3]: 5.92

SMILES: Cc1cc(C#N)nn1-c1nc(-n2cnc3cc(N4CC[C@@H](O)C4)ccc32)ccc1C(C)O (stereo partly drawn) [Example 77, 1-[3-(1-Hydroxyethyl)-6-[5-[(3R)-3-hydroxypyrrolidin-1-yl]benzimidazol-1-yl]-2-pyridyl]-5-methyl-pyrazole-3-carbonitrile; formic acid]
- pIC50 [1]: 8.00
- pIC50 [2]: 7.80
- pIC50 [3]: 7.55

SMILES: Cc1ccc(Nc2ccc3c(c2)ncn3-c2ccc(C(C)O)c(-n3nc(C(F)F)c(C)c3C)n2)nn1 (stereo not drawn) [Example 369, 1-[2-[3-(difluoromethyl)-4,5-dimethyl-pyrazol-1-yl]-6-[5-[(6-methylpyridazin-3-yl)amino]benzimidazol-1-yl]-3-pyridyl]ethanol]
- pIC50 [1]: 8.09
- pIC50 [2]: 8.39
- pIC50 [3]: 5.88

SMILES: Cc1cc(C#N)nn1-c1nc(-n2cnc3cc(Nc4ccc(C5CCCN5C5COC5)nn4)ccc32)ccc1C(C)O (stereo not drawn) [Example 304, 1-[3-(1-hydroxyethyl)-6-[5-[[6-[1-(oxetan-3-yl)pyrrolidin-2-yl]pyridazin-3-yl]amino]benzimidazol-1-yl]-2-pyridyl]-5-methyl-pyrazole-3-carbonitrile]
- pIC50 [1]: 7.02
- pIC50 [2]: 7.43
- pIC50 [3]: 6.56

SMILES: COCC(O)c1ccc(-n2cnc3ccc(Nc4ccc(C)nn4)cc32)nc1-n1nc(C#N)cc1C (stereo not drawn) [Example 235, 1-[3-(1-Hydroxy-2-methoxy-ethyl)-6-[6-[(6-methylpyridazin-3-yl)amino]benzimidazol-1-yl]-2-pyridyl]-5-methyl-pyrazole-3-carbonitrile]
- pIC50 [1]: 6.61
- pIC50 [2]: 6.70
- pIC50 [3]: 6.19

SMILES: Cc1cc(C#N)nn1-c1nc(-n2cnc3ccc(NC(=O)C4CC4)cc32)ccc1C(C)O (stereo not drawn) [Example 328, N-[3-[6-(3-cyano-5-methyl-pyrazol-1-yl)-5-(1-hydroxyethyl)-2-pyridyl]benzimidazol-5-yl]cyclopropanecarboxamide]
- pIC50 [1]: 7.18
- pIC50 [2]: 7.44
- pIC50 [3]: 6.90

SMILES: COc1cc2ncn(-c3ccc(CO)c(N4CCCC4)n3)c2cc1OC [Example 27, (6-(5,6-Dimethoxy-1H-benzo[d]imidazol-1-yl)-2-(pyrrolidin-1-yl)pyridin-3-yl)methanol]
- pIC50 [1]: 6.33
- pIC50 [2]: 6.12
- pIC50 [3]: 6.27

SMILES: CC(O)c1ccc(-n2cnc3cc(OCCN4CCOCC4)ccc32)nc1-n1ccc(C(F)(F)F)n1 (stereo not drawn) [Example 62, 1-[6-[5-(2-Morpholinoethoxy)benzimidazol-1-yl]-2-[3-(trifluoromethyl)pyrazol-1-yl]-3-pyridyl]ethanol]
- pIC50 [1]: 6.72
- pIC50 [2]: 6.75
- pIC50 [3]: 5.78

SMILES: Cc1ccc(Nc2ccc3c(c2)ncn3-c2ccc(C(C)O)c(N3CCOC(C(F)F)C3)n2)nn1 (stereo not drawn) [Example 323, 1-[2-[2-(difluoromethyl)morpholin-4-yl]-6-[5-[(6-methylpyridazin-3-yl)amino]benzimidazol-1-yl]-3-pyridyl]ethanol]
- pIC50 [1]: 7.31
- pIC50 [2]: 8.15
- pIC50 [3]: 5.60

SMILES: Cc1ccc(Nc2cc3ncn(-c4ccc([C@H](C)O)c(-n5nc(C(F)F)cc5C)n4)c3cc2F)nn1 [Example 301, (1S)-1-[2-[3-(difluoromethyl)-5-methyl-pyrazol-1-yl]-6-[6-fluoro-5-[(6-methylpyridazin-3-yl)amino]benzimidazol-1-yl]-3-pyridyl]ethanol]
- pIC50 [1]: 8.46
- pIC50 [2]: 8.70
- pIC50 [3]: 6.18

SMILES: Cc1ccc(Nc2ccc3ncn(-c4ccc([C@H](C)O)c(-n5nc(C#N)cc5C)n4)c3c2)nn1 [Example 280, 1-[3-[(1S)-1-hydroxyethyl]-6-[6-[(6-methylpyridazin-3-yl)amino]benzimidazol-1-yl]-2-pyridyl]-5-methyl-pyrazole-3-carbonitrile]
- pIC50 [1]: 7.58
- pIC50 [2]: 6.83
- pIC50 [3]: 7.41

SMILES: Cc1cc(C#N)nn1-c1nc(-n2cnc3cc(Nc4cccn(C)c4=O)ccc32)ccc1C(C)O (stereo not drawn) [Example 333, 1-[3-(1-hydroxyethyl)-6-[5-[(2-keto-1-methyl-3-pyridyl)amino]benzimidazol-1-yl]-2-pyridyl]-5-methyl-pyrazole-3-carbonitrile]
- pIC50 [1]: 7.60
- pIC50 [2]: 7.71
- pIC50 [3]: 7.39

SMILES: Cc1ccc(Nc2ccc3c(c2)ncn3-c2ccc(C(C)O)c(-c3cc(C4CC4)ncc3C)n2)nn1 (stereo not drawn) [Example 289, 1-[2-(2-cyclopropyl-5-methyl-4-pyridyl)-6-[5-[(6-methylpyridazin-3-yl)amino]benzimidazol-1-yl]-3-pyridyl]ethanol]
- pIC50 [1]: 7.91
- pIC50 [2]: 8.24
- pIC50 [3]: 6.23

SMILES: Cc1ccc(Nc2ccc3c(c2)ncn3-c2ccc(C(C)O)c(-n3ncc(C#N)n3)n2)nn1 (stereo not drawn) [Example 256, 2-[3-(1-Hydroxyethyl)-6-[5-[(6-methylpyridazin-3-yl)amino]benzimidazol-1-yl]-2-pyridyl]triazole-4-carbonitrile]
- pIC50 [1]: 7.66
- pIC50 [2]: 8.32
- pIC50 [3]: 5.82

SMILES: Cc1ccc(Nc2ccc3c(c2)ncn3-c2ccc(C(C)O)c(-n3nc(C#N)c4c3CCNC4)n2)nn1 (stereo not drawn) [Example 205, 1-[3-(1-Hydroxyethyl)-6-[5-[(6-methylpyridazin-3-yl)amino]benzimidazol-1-yl]-2-pyridyl]-4,5,6,7-tetrahydropyrazolo[4,3-c]pyridine-3-carbonitrile]
- pIC50 [1]: 9.52
- pIC50 [2]: 9.52
- pIC50 [3]: 8.52

SMILES: Cc1ccc(Nc2ccc3c(c2)ncn3-c2ccc(C(C)O)c(-n3cc(C#N)c(C)n3)n2)nn1 (stereo not drawn) [Example 182, 1-[3-(1-Hydroxyethyl)-6-[5-[(6-methylpyridazin-3-yl)amino]benzimidazol-1-yl]-2-pyridyl]-3-methyl-pyrazole-4-carbonitrile]
- pIC50 [1]: 7.05
- pIC50 [2]: 7.59
- pIC50 [3]: 4.81

SMILES: Cc1ccc(Nc2ccc3c(c2)ncn3-c2ccc(C(C)O)c(O[C@H]3CCNC3)n2)nn1 (stereo partly drawn) [Example 208, 1-[6-[5-[(6-Methylpyridazin-3-yl)amino]benzimidazol-1-yl]-2-[(3S)-pyrrolidin-3-yl]oxy-3-pyridyl]ethanol]
- pIC50 [1]: 7.53
- pIC50 [2]: 8.32
- pIC50 [3]: 6.34

SMILES: Cc1ccc(Nc2ccc3ncn(-c4ccc(C(C)O)c(-n5nc(C)cc5C)n4)c3c2)nn1 (stereo not drawn) [Example 107, 1-[2-(3,5-Dimethylpyrazol-1-yl)-6-[6-[(6-methylpyridazin-3-yl)amino]benzimidazol-1-yl]-3-pyridyl]ethanol; formic acid]
- pIC50 [1]: 5.86
- pIC50 [2]: 5.46
- pIC50 [3]: 5.58

SMILES: Cc1cc(C#N)nn1-c1nc(-n2cnc3ccc(CN4CCCS4(=O)=O)cc32)ccc1C(C)O (stereo not drawn) [Example 202, 1-[6-[6-[(1,1-Dioxo-1,2-thiazolidin-2-yl)methyl]benzimidazol-1-yl]-3-(1-hydroxyethyl)-2-pyridyl]-5-methyl-pyrazole-3-carbonitrile]
- pIC50 [1]: 6.30
- pIC50 [2]: 6.69
- pIC50 [3]: 5.99

SMILES: Cc1ccc(Oc2ccc3ncn(-c4ccc(C(C)O)c(-n5nc(C#N)cc5C)n4)c3c2)nn1 (stereo not drawn) [Example 74, 1-[3-(1-Hydroxyethyl)-6-[6-(6-methylpyridazin-3-yl)oxybenzimidazol-1-yl]-2-pyridyl]-5-methyl-pyrazole-3-carbonitrile]
- pIC50 [1]: 7.44
- pIC50 [2]: 6.72
- pIC50 [3]: 7.35

SMILES: Cc1ccc(Nc2cc3ncn(-c4ccc([C@@H](C)O)c(-n5nc(OC(F)F)cc5C)n4)c3cc2OC2COC2)nn1 [Example 384, (1R)-1-[2-[3-(difluoromethoxy)-5-methyl-pyrazol-1-yl]-6-[5-[(6-methylpyridazin-3-yl)amino]-6-(oxetan-3-yloxy)benzimidazol-1-yl]-3-pyridyl]ethanol]
- pIC50 [1]: 7.38
- pIC50 [2]: 7.10
- pIC50 [3]: 6.67
